According to PubChem BioAssay (NCI):
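Briefly, cells in 96-well plates were exposed to five compound concentrations for 48 h, and endpoints were estimated by linear interpolation. TGI marks complete inhibition of growth.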

Experiments:
Test in all cases: NCI-60 cell line screen, 48 h
DMS 273 small cell lung = system: DMS 273 small cell lung
SK-MEL-2 melanoma = system: SK-MEL-2 melanoma
SNB-78 CNS = system: SNB-78 CNS
UACC-257 melanoma = system: UACC-257 melanoma
HCT-116 colon = system: HCT-116 colon
SNB-19 CNS = system: SNB-19 CNS
NCI-H522 lung = system: NCI-H522 lung
SW-620 colon = system: SW-620 colon
SF-268 CNS = system: SF-268 CNS
786-0 renal = system: 786-0 renal
OVCAR-3 ovarian = system: OVCAR-3 ovarian
SNB-75 CNS = system: SNB-75 CNS
MALME-3M melanoma = system: MALME-3M melanoma
OVCAR-4 ovarian = system: OVCAR-4 ovarian
SN12C renal = system: SN12C renal
DMS 114 small cell lung = system: DMS 114 small cell lung
EKVX NSCLC = system: EKVX NSCLC
SK-OV-3 ovarian = system: SK-OV-3 ovarian
OVCAR-8 ovarian = system: OVCAR-8 ovarian
CCRF-CEM leukemia = system: CCRF-CEM leukemia
MOLT-4 leukemia = system: MOLT-4 leukemia
NCI-H460 lung = system: NCI-H460 lung
DLD-1 colon = system: DLD-1 colon
M14 melanoma = system: M14 melanoma
SR leukemia = system: SR leukemia
LXFL 529 NSCLC = system: LXFL 529 NSCLC
LOX IMVI melanoma = system: LOX IMVI melanoma
SK-MEL-5 melanoma = system: SK-MEL-5 melanoma
UO-31 renal = system: UO-31 renal
COLO 205 colon = system: COLO 205 colon
A549 NSCLC = system: A549 NSCLC
CAKI-1 renal = system: CAKI-1 renal
M19-MEL melanoma = system: M19-MEL melanoma
HT29 colon = system: HT29 colon
HOP-62 NSCLC = system: HOP-62 NSCLC
K-562 leukemia = system: K-562 leukemia
UACC-62 melanoma = system: UACC-62 melanoma
ACHN renal = system: ACHN renal
NCI-H226 lung = system: NCI-H226 lung
HCT-15 colon = system: HCT-15 colon
IGROV1 ovarian = system: IGROV1 ovarian
XF 498 CNS = system: XF 498 CNS
U251 CNS = system: U251 CNS
RPMI-8226 leukemia = system: RPMI-8226 leukemia
RXF-631 renal = system: RXF-631 renal
KM20L2 colon = system: KM20L2 colon
SF-295 CNS = system: SF-295 CNS
OVCAR-5 ovarian = system: OVCAR-5 ovarian
HCC-2998 colon = system: HCC-2998 colon
SF-539 CNS = system: SF-539 CNS
NCI-H23 lung = system: NCI-H23 lung
KM12 colon = system: KM12 colon
A498 renal = system: A498 renal
SK-MEL-28 melanoma = system: SK-MEL-28 melanoma
TK-10 renal = system: TK-10 renal
HL-60(TB) leukemia = system: HL-60(TB) leukemia
RXF 393 renal = system: RXF 393 renal
HOP-92 NSCLC = system: HOP-92 NSCLC
HOP-18 NSCLC = system: HOP-18 NSCLC

SMILES: CC1(C)Cc2c(oc3ncnc(N)c23)CS1
- TGI (DMS 273 small cell lung): > 100 µM
- TGI (SK-MEL-2 melanoma): > 100 µM
- TGI (SNB-78 CNS): > 100 µM
- TGI (UACC-257 melanoma): > 100 µM
- TGI (HCT-116 colon): > 100 µM
- TGI (SNB-19 CNS): > 100 µM
- TGI (NCI-H522 lung): > 100 µM
- TGI (SW-620 colon): > 100 µM
- TGI (SF-268 CNS): > 100 µM
- TGI (786-0 renal): > 100 µM
- TGI (OVCAR-3 ovarian): > 100 µM
- TGI (SNB-75 CNS): > 100 µM
- TGI (MALME-3M melanoma): > 100 µM
- TGI (OVCAR-4 ovarian): > 100 µM
- TGI (SN12C renal): > 100 µM
- TGI (DMS 114 small cell lung): > 100 µM
- TGI (EKVX NSCLC): > 100 µM
- TGI (SK-OV-3 ovarian): > 100 µM
- TGI (OVCAR-8 ovarian): > 100 µM
- TGI (CCRF-CEM leukemia): > 100 µM
- TGI (MOLT-4 leukemia): > 100 µM
- TGI (NCI-H460 lung): > 100 µM
- TGI (DLD-1 colon): > 100 µM
- TGI (M14 melanoma): > 100 µM
- TGI (SR leukemia): > 100 µM
- TGI (LXFL 529 NSCLC): > 100 µM
- TGI (LOX IMVI melanoma): > 100 µM
- TGI (SK-MEL-5 melanoma): > 100 µM
- TGI (UO-31 renal): > 100 µM
- TGI (COLO 205 colon): > 100 µM
- TGI (A549 NSCLC): > 100 µM
- TGI (CAKI-1 renal): > 100 µM
- TGI (M19-MEL melanoma): > 100 µM
- TGI (HT29 colon): > 100 µM
- TGI (HOP-62 NSCLC): > 100 µM
- TGI (K-562 leukemia): > 100 µM
- TGI (UACC-62 melanoma): > 100 µM
- TGI (ACHN renal): > 100 µM
- TGI (NCI-H226 lung): > 100 µM
- TGI (HCT-15 colon): > 100 µM
- TGI (IGROV1 ovarian): > 100 µM
- TGI (XF 498 CNS): > 100 µM
- TGI (U251 CNS): > 100 µM
- TGI (RPMI-8226 leukemia): > 100 µM
- TGI (RXF-631 renal): > 100 µM
- TGI (KM20L2 colon): > 100 µM
- TGI (SF-295 CNS): > 100 µM
- TGI (OVCAR-5 ovarian): > 100 µM
- TGI (HCC-2998 colon): > 100 µM
- TGI (SF-539 CNS): > 100 µM
- TGI (NCI-H23 lung): > 100 µM
- TGI (KM12 colon): > 100 µM

SMILES: Cn1c(=O)cc2[nH]c3ccccc3n2c1=O
- TGI (DMS 273 small cell lung): 45.3 µM
- TGI (SK-MEL-2 melanoma): > 100 µM
- TGI (SNB-78 CNS): > 100 µM
- TGI (UACC-257 melanoma): > 100 µM
- TGI (SNB-19 CNS): > 100 µM
- TGI (SW-620 colon): 61.3 µM
- TGI (SF-268 CNS): > 100 µM
- TGI (786-0 renal): 62.9 µM
- TGI (OVCAR-3 ovarian): > 100 µM
- TGI (SNB-75 CNS): > 100 µM
- TGI (MALME-3M melanoma): > 100 µM
- TGI (A498 renal): > 100 µM
- TGI (OVCAR-4 ovarian): > 100 µM
- TGI (DMS 114 small cell lung): > 100 µM
- TGI (EKVX NSCLC): > 100 µM
- TGI (SK-OV-3 ovarian): > 100 µM
- TGI (SK-MEL-28 melanoma): > 100 µM
- TGI (OVCAR-8 ovarian): > 100 µM
- TGI (CCRF-CEM leukemia): > 100 µM
- TGI (MOLT-4 leukemia): > 100 µM
- TGI (NCI-H460 lung): > 100 µM
- TGI (DLD-1 colon): > 100 µM
- TGI (M14 melanoma): > 100 µM
- TGI (SR leukemia): > 100 µM
- TGI (LXFL 529 NSCLC): > 100 µM
- TGI (LOX IMVI melanoma): 38.4 µM
- TGI (SK-MEL-5 melanoma): > 100 µM
- TGI (UO-31 renal): > 100 µM
- TGI (COLO 205 colon): 29.9 µM
- TGI (A549 NSCLC): > 100 µM
- TGI (CAKI-1 renal): > 100 µM
- TGI (M19-MEL melanoma): > 100 µM
- TGI (HT29 colon): > 100 µM
- TGI (TK-10 renal): > 100 µM
- TGI (HOP-62 NSCLC): > 100 µM
- TGI (K-562 leukemia): > 100 µM
- TGI (UACC-62 melanoma): > 100 µM
- TGI (HL-60(TB) leukemia): > 100 µM
- TGI (ACHN renal): > 100 µM
- TGI (NCI-H226 lung): > 100 µM
- TGI (HCT-15 colon): > 100 µM
- TGI (IGROV1 ovarian): > 100 µM
- TGI (U251 CNS): 31.2 µM
- TGI (RPMI-8226 leukemia): > 100 µM
- TGI (RXF-631 renal): 86.5 µM
- TGI (RXF 393 renal): 64.2 µM
- TGI (KM20L2 colon): > 100 µM
- TGI (SF-295 CNS): > 100 µM
- TGI (OVCAR-5 ovarian): > 100 µM
- TGI (HCC-2998 colon): > 100 µM
- TGI (HOP-92 NSCLC): > 100 µM
- TGI (HOP-18 NSCLC): > 100 µM
- TGI (SF-539 CNS): 46.3 µM
- TGI (NCI-H23 lung): > 100 µM
- TGI (KM12 colon): > 100 µM

SMILES: O=C(Nc1ccc(Cl)cc1C(=O)O)c1ccc([N+](=O)[O-])cc1
- TGI (DMS 273 small cell lung): 67.1 µM
- TGI (SK-MEL-2 melanoma): 16.9 µM
- TGI (SNB-78 CNS): 67.2 µM
- TGI (UACC-257 melanoma): 48 µM
- TGI (HCT-116 colon): 36.9 µM
- TGI (SNB-19 CNS): > 100 µM
- TGI (SW-620 colon): > 100 µM
- TGI (SF-268 CNS): > 100 µM
- TGI (786-0 renal): 34.1 µM
- TGI (OVCAR-3 ovarian): 56.6 µM
- TGI (SNB-75 CNS): > 100 µM
- TGI (MALME-3M melanoma): 25.7 µM
- TGI (A498 renal): 27.2 µM
- TGI (OVCAR-4 ovarian): 47.1 µM
- TGI (SN12C renal): > 100 µM
- TGI (DMS 114 small cell lung): 36.8 µM
- TGI (EKVX NSCLC): 82.8 µM
- TGI (SK-OV-3 ovarian): 56.5 µM
- TGI (SK-MEL-28 melanoma): 97.2 µM
- TGI (OVCAR-8 ovarian): > 100 µM
- TGI (CCRF-CEM leukemia): 67.4 µM
- TGI (MOLT-4 leukemia): 61.7 µM
- TGI (NCI-H460 lung): 45.7 µM
- TGI (DLD-1 colon): 30.9 µM
- TGI (M14 melanoma): 60.8 µM
- TGI (LXFL 529 NSCLC): 48.7 µM
- TGI (LOX IMVI melanoma): 37.6 µM
- TGI (SK-MEL-5 melanoma): 48.7 µM
- TGI (UO-31 renal): 44.1 µM
- TGI (COLO 205 colon): 39.4 µM
- TGI (A549 NSCLC): > 100 µM
- TGI (M19-MEL melanoma): 55.9 µM
- TGI (HT29 colon): 40.7 µM
- TGI (TK-10 renal): 86.4 µM
- TGI (HOP-62 NSCLC): 39.2 µM
- TGI (K-562 leukemia): 90.4 µM
- TGI (UACC-62 melanoma): 45.6 µM
- TGI (HL-60(TB) leukemia): 50.8 µM
- TGI (ACHN renal): 49.6 µM
- TGI (NCI-H226 lung): 72.2 µM
- TGI (HCT-15 colon): 46.3 µM
- TGI (IGROV1 ovarian): 45.5 µM
- TGI (XF 498 CNS): 90.1 µM
- TGI (U251 CNS): 51.1 µM
- TGI (RPMI-8226 leukemia): 97.3 µM
- TGI (RXF-631 renal): > 100 µM
- TGI (KM20L2 colon): 48.3 µM
- TGI (SF-295 CNS): 51.1 µM
- TGI (OVCAR-5 ovarian): 55 µM
- TGI (HCC-2998 colon): 39.6 µM
- TGI (HOP-92 NSCLC): 22.6 µM
- TGI (SF-539 CNS): 37.5 µM
- TGI (KM12 colon): 36.2 µM
